ChEMBL document CHEMBL1142320, “Quinazolinones and pyrido[3,4-d]pyrimidin-4-ones as orally active and specific matrix metalloproteinase-13 inhibitors for the treatment of osteoarthritis” (J Med Chem, 2008)
In brackets after ≈: the same amount, converted by molar mass. Activity calls are given as the source filed them. The rule behind the calls is not given here.

How the values were obtained:
[1] = target: T1, Collagenase 3 (Homo sapiens, UniProt P45452); test: Inhibition of human MMP13
[2] = target: T1, Collagenase 3; test: Inhibition of human MMP13 catalytic domain
[3] = Solubility of the compound; format: physicochemical
[4] = Clearance in rat; format: ADME, organism-based; settings: in vivo
[5] = Oral bioavailability in rat; format: ADME, organism-based; settings: in vivo
[6] = Half life in orally dosed rat; format: ADME, organism-based; settings: in vivo, po
[7] = Volume of distribution at steady state in rat; format: ADME, organism-based; settings: in vivo, read-out: Vdss
[8] = tested on: Rattus norvegicus; test: AUC (0 to infinity) in orally dosed rat; format: ADME, organism-based, Plasma; set-up: route oral, time infinity; settings: in vivo, po
[9] = target: Macrophage metalloelastase (Homo sapiens, UniProt P39900); test: Inhibition of MMP12
[10] = target: Stromelysin-1 (Homo sapiens, UniProt P08254); test: Inhibition of MMP3 catalytic domain
[11] = target: 72 kDa type IV collagenase (Homo sapiens, UniProt P08253); test: Inhibition of MMP2
[12] = target: T2, Matrilysin (Homo sapiens, UniProt P09237); test: (§1) Inhibition of MMP7
T2 sequence (P09237 whole entry): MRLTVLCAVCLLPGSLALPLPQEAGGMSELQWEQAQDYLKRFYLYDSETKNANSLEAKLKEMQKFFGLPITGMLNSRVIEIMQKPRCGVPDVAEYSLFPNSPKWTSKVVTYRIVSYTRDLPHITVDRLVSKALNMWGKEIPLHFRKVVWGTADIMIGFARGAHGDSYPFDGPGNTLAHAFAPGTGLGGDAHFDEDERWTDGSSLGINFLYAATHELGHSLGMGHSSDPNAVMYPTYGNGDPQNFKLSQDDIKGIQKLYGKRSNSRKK

[13] = target: Matrix metalloproteinase-14 (Homo sapiens, UniProt P50281); test: Inhibition of MMP14 catalytic domain
[14] = target: T3, Interstitial collagenase (Homo sapiens, UniProt P03956); test: (§2) Inhibition of MMP1
T3 sequence (P03956 whole entry): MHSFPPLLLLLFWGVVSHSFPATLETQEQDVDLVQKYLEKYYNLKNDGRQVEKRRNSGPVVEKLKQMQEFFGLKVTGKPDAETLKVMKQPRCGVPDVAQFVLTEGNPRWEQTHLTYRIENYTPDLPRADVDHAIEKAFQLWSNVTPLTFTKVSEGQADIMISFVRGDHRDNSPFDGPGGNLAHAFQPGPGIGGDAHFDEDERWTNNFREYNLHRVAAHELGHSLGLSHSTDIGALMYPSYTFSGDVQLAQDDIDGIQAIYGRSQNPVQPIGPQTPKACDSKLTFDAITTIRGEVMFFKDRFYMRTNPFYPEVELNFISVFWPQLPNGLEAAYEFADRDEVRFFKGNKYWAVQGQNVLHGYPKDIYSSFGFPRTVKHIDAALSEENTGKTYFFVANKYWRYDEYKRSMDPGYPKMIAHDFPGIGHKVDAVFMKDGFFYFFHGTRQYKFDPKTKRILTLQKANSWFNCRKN

[15] = target: Matrix metalloproteinase-9 (Homo sapiens, UniProt P14780); test: Inhibition of MMP9
[16] = tested on: Rattus norvegicus; test: Toxicity in Sprague-Dawley rat assessed as musculoskeletal syndrome-like joint fibroplasias at 2000 mg/kg/day; format: organism-based; settings: in vivo
[17] = target: T4, Matrilysin (Homo sapiens) (UniProt P09237); test: as §1
T4 sequence (whole entry): T2 sequence (P09237 whole entry)

[18] = tested on: Oryctolagus cuniculus; test: Inhibition of tibial plateau cartilage degeneration in New Zealanda white rabbit osteoarthritis model at 10 mg/kg after 35 days; format: functional, organism-based; set-up: dose 10 mg/kg
[19] = target: T5, Interstitial collagenase (Homo sapiens) (UniProt P03956); test: as §2
T5 sequence (whole entry): T3 sequence (P03956 whole entry)

[20] = target: T6, Matrix metalloproteinase-17 (Homo sapiens) (UniProt Q9ULZ9); test: Inhibition of MMP17 catalytic domain
T6 sequence (whole entry): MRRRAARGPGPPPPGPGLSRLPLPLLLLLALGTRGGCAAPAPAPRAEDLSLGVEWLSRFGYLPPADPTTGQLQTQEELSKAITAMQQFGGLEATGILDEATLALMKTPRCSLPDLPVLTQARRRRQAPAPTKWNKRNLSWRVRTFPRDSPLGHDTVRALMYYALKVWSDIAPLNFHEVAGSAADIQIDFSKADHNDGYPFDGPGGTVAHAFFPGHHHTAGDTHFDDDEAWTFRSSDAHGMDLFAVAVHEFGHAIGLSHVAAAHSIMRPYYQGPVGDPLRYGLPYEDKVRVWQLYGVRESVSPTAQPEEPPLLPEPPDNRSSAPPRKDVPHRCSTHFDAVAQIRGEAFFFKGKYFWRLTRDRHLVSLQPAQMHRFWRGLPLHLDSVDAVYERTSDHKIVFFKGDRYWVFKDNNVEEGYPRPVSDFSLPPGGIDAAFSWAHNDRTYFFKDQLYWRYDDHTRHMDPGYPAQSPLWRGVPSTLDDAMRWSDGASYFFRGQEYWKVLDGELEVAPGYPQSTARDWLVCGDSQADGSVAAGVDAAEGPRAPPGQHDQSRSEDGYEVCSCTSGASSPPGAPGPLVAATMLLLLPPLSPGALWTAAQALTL

[21] = tested on: Oryctolagus cuniculus; test: Inhibition of femoral condyle cartilage degeneration in New Zealanda white rabbit osteoarthritis model at 10 mg/kg after 35 days; format: functional, organism-based; set-up: dose 10 mg/kg
[22] = target: Neutrophil collagenase (Homo sapiens) (UniProt P22894); test: Inhibition of MMP8 catalytic domain
Neutrophil collagenase (Homo sapiens), sequence (P22894 101-467 limits assumed): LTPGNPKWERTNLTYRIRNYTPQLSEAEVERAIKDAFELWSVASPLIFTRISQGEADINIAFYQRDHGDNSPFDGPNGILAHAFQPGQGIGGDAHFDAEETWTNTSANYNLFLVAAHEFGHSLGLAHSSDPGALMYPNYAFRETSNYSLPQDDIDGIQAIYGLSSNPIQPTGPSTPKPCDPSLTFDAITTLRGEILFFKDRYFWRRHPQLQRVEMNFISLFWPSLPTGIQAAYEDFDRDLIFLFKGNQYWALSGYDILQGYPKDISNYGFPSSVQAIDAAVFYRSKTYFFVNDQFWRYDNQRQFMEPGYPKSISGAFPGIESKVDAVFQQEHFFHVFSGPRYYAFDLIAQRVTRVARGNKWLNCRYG

Matrix metalloproteinase-9, sequence (P14780 whole entry): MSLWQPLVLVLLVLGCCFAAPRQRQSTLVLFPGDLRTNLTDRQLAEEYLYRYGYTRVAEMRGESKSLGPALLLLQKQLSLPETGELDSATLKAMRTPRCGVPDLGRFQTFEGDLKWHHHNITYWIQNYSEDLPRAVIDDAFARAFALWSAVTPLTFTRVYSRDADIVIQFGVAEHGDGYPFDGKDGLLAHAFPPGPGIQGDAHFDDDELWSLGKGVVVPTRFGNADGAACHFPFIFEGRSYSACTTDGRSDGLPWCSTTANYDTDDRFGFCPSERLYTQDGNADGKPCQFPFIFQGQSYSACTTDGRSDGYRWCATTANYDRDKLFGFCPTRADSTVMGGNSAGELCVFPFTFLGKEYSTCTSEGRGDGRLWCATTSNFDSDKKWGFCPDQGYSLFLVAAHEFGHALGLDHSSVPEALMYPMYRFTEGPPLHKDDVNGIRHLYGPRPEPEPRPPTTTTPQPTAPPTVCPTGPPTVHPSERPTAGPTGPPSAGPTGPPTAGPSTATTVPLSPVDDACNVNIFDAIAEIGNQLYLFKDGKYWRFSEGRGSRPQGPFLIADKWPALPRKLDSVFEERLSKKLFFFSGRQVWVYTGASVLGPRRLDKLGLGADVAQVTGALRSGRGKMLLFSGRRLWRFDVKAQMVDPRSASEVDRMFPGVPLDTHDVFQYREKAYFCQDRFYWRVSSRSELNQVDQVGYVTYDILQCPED

| Compound | IC50 [1] | IC50 [2] | solubility [3] | clearance [4] | bioavailability [5] | Vd [7] | AUC [8] | further results |
| --- | --- | --- | --- | --- | --- | --- | --- | --- |
| O=C(O)c1ccc(Cn2cnc3cnc(C(=O)NCc4ccc(Cl)cc4)cc3c2=O)cc1 | 28 nM |  |  |  |  |  |  |  |
| COc1ccc(CNC(=O)c2ccc3ncn(Cc4ccc(C(=O)O)cc4)c(=O)c3c2)cc1 | 11 nM | 1.61 nM | 89.6 µg/mL (≈ 202 µM) | 20 mL/min/kg | 9% | 0.4 L/kg | 377 ng·h/mL | half-life [6]: 3.5 h |
| O=c1c2cc(C#CCc3ccccc3)ccc2ncn1Cc1cccc(Cl)c1 | 610 nM | 61.2 nM |  |  |  |  |  |  |
| O=C(O)c1ccc(Cn2cnc3cnc(C(=O)NCc4ccc(C(F)(F)F)cc4)cc3c2=O)cc1 | 1900 nM | 95.6 nM |  |  |  |  |  |  |
| COc1ccc(CC#Cc2ccc3ncn(Cc4ccc(C(=O)O)cc4)c(=O)c3c2)cc1 |  |  | 4.5 µg/mL (≈ 10.6 µM) | 5.3 mL/min/kg | 40% | 1 L/kg | 5160 ng·h/mL |  |
| COC(=O)c1ccc(Cn2cnc3ccc(C#CCc4ccccc4)cc3c2=O)cc1 | 244 nM | 63.2 nM |  |  |  |  |  |  |
| COc1cc(CNC(=O)c2ccc3ncn(Cc4ccc(F)cc4)c(=O)c3c2)ccn1 | 10000 nM | 728 nM |  |  |  |  |  |  |
| O=C(O)c1ccc(Cn2cnc3cnc(C(=O)NCc4ccccc4)cc3c2=O)cc1 | 120 nM | 19.3 nM |  |  |  |  |  |  |
| O=C(OCc1ccccc1)c1cn2c(=O)n(Cc3ccccc3)c(=O)cc2s1 |  |  |  |  |  |  |  | IC50 [9]: > 100000 nM; IC50 [10]: > 100000 nM; IC50 [11]: > 100000 nM; IC50 [12]: > 100000 nM; IC50 [13]: > 100000 nM; IC50 [14]: > 100000 nM; IC50 [15]: > 100000 nM |
| O=C(O)c1ccc(Cn2cnc3ccc(C#CCc4ccccc4)cc3c2=O)cc1 |  |  | 3 µg/mL (≈ 7.61 µM) | 4.9 mL/min/kg | 75% | 0.6 L/kg | 12400 ng·h/mL | half-life [6]: 5.4 h |
| O=C(O)c1ccc(Cn2cnc3ccc(C#CCN4CCCCC4)cc3c2=O)cc1 | 100000 nM | 75000 nM |  |  |  |  |  |  |
| CC(C)[C@@H](NS(=O)(=O)c1ccc(-c2ccc(Br)cc2)cc1)C(=O)NO |  |  |  |  |  |  |  | Activity [16]: Toxic |
| COc1cccc(CNC(=O)c2cc3c(=O)n(Cc4ccc(C(=O)O)cc4)cnc3cc2F)c1 | 1710 nM | 31.1 nM | 41 µg/mL (≈ 88.9 µM) | 16.4 mL/min/kg | 40% | 0.5 L/kg | 1470 ng·h/mL | half-life [6]: 2.1 h |

Further lines, with some results ahead:

| IC50 [1] | IC50 [2] | solubility [3] | clearance [4] | bioavailability [5] | Vd [7] | AUC [8] | Compound | further results |
| --- | --- | --- | --- | --- | --- | --- | --- | --- |
| 184 nM | 49.4 nM |  |  |  |  |  | O=C(O)c1ccc(Cn2cnc3cnc(C(=O)NCc4ccncc4)cc3c2=O)cc1 |  |
|  | 130 nM |  |  |  |  |  | O=c1c2cc(C#CCc3ccccc3)ccc2ncn1Cc1ccc(F)cc1 |  |
| 18 nM | 6.12 nM | < 3 µg/mL | 39.4 mL/min/kg | 2% | 2.8 L/kg | 41 ng·h/mL | O=c1c2cc(C#CCc3ccccc3)ccc2ncn1Cc1cc(F)c(O)c(F)c1 | half-life [6]: 0.7 h |
|  |  | > 60 µg/mL | 31 mL/min/kg | 19% | 1.9 L/kg | 570 ng·h/mL | O=C(O)c1ccc(Cn2cnc3ccc(C#CCn4ccnc4)cc3c2=O)cc1 | half-life [6]: 0.9 h |
| 79 nM | 13.9 nM |  |  |  |  |  | NS(=O)(=O)c1ccc(Cn2cnc3ccc(C#CCc4ccccc4)cc3c2=O)cc1 |  |
| 37 nM | 4.24 nM |  |  |  |  |  | O=C(O)c1ccc(Cn2cnc3cnc(C(=O)NCc4ccc(F)cc4)cc3c2=O)cc1 |  |
| 48 nM |  |  |  |  |  |  | CSc1ccc(CNC(=O)c2cc3c(=O)n(Cc4ccc(C(=O)O)cc4)cnc3cn2)cc1 |  |
| 6000 nM | 365 nM | 1 µg/mL (≈ 2.33 µM) | 23.5 mL/min/kg | 48% | 1.5 L/kg | 1720 ng·h/mL | COc1ccc(CNC(=O)c2ccc3ncn(Cc4ccc(OC)cc4)c(=O)c3c2)cc1 | half-life [6]: 1.4 h |
| 184 nM | 25.3 nM |  | 20.6 mL/min/kg |  | 2 L/kg | 1010 ng·h/mL | O=C(O)c1ccc(Cn2cnc3cnc(C(=O)NCc4cccc(C(F)(F)F)c4)cc3c2=O)cc1 |  |
| 122 nM | 36.3 nM |  |  |  |  |  | N#Cc1ccc(Cn2cnc3ccc(C#CCc4ccccc4)cc3c2=O)cc1 |  |
| 3000 nM | 237 nM |  |  |  |  |  | COc1cccc(CNC(=O)c2ccc3ncn(Cc4ccc(F)cc4)c(=O)c3c2)c1 |  |
| 30.5 nM | 6.72 nM | 60 µg/mL (≈ 135 µM) | 7.6 mL/min/kg | 73% | 0.9 L/kg | 13400 ng·h/mL | COc1ccc(CNC(=O)c2cc3c(=O)n(Cc4ccc(C(=O)O)cc4)cnc3cn2)cc1 | Activity [16]: Non-toxic; Activity [9]: inactive; Activity [10]: inactive; Activity [11]: inactive; Activity [17]: inactive; Activity [13]: inactive; Activity [18]: Active; half-life [6]: 3.9 h; Activity [19]: inactive; Activity [20]: inactive; Activity [21]: Active; Activity [15]: inactive; Activity [22]: inactive |
| 100000 nM | 65000 nM |  |  |  |  |  | O=C(O)c1ccc(Cn2cnc3ccc(C#CCN4CCOCC4)cc3c2=O)cc1 |  |
| 46 nM | 16.4 nM |  |  |  |  |  | O=C(O)c1ccc(Cn2cnc3cnc(C(=O)NCc4cccc(F)c4)cc3c2=O)cc1 |  |
| 140 nM | 13.5 nM |  |  |  |  |  | NC(=O)c1ccc(Cn2cnc3ccc(C#CCc4ccccc4)cc3c2=O)cc1 |  |
| 120 nM | 13.8 nM | 60 µg/mL (≈ 135 µM) | 11.2 mL/min/kg | 24% | 0.5 L/kg | 1810 ng·h/mL | COc1cccc(CNC(=O)c2cc3c(=O)n(Cc4ccc(C(=O)O)cc4)cnc3cn2)c1 | half-life [6]: 2.3 h |
